Experimental data published in ChEMBL document CHEMBL4138158, “2-Arylbenzofurans from Artocarpus lakoocha and methyl ether analogs with potent cholinesterase inhibitory activity” (Eur J Med Chem, 2018).
Calls of active or inactive are those of the source. The calls are words filed in the database; no cut-off is given here.

Columns and labels:
[1] = molecular target: T1, Cholinesterase (Homo sapiens, UniProt P06276); experiment: Inhibition of BChE (unknown origin) at 0.1 mg/ml using thiocholine as substrate preincubated for 15 mins followed by substrate addition measured after 5 mins by Ellman's method
[2] = molecular target: Acetylcholinesterase (Electrophorus electricus) (UniProt O42275); experiment: Inhibition of electric eel AChE at 0.1 mg/ml using acetylthiocholine as substrate preincubated for 15 mins followed by substrate addition measured after 5 mins by Ellman's method
[3] = molecular target: T1, Cholinesterase; experiment: Potency index, ratio of galantamine IC50 to compound IC50 for inhibition of BChE (unknown origin)
[4] = molecular target: T1, Cholinesterase; experiment: Inhibition of BChE (unknown origin) using thiocholine as substrate preincubated for 15 mins followed by substrate addition measured after 5 mins by Ellman's method
[5] = molecular target: Acetylcholinesterase (Electrophorus electricus) (UniProt O42275); experiment: Potency index, ratio of galantamine IC50 to compound IC50 for inhibition of electric eel AChE
[6] = Selectivity ratio of IC50 for BChE (unknown origin) to IC50 for electric eel AChE
[7] = molecular target: Acetylcholinesterase (Electrophorus electricus, UniProt O42275); experiment: Inhibition of electric eel AChE using acetylthiocholine as substrate preincubated for 15 mins followed by substrate addition measured after 5 mins by Ellman's method
Chain of Acetylcholinesterase (O42275 whole entry): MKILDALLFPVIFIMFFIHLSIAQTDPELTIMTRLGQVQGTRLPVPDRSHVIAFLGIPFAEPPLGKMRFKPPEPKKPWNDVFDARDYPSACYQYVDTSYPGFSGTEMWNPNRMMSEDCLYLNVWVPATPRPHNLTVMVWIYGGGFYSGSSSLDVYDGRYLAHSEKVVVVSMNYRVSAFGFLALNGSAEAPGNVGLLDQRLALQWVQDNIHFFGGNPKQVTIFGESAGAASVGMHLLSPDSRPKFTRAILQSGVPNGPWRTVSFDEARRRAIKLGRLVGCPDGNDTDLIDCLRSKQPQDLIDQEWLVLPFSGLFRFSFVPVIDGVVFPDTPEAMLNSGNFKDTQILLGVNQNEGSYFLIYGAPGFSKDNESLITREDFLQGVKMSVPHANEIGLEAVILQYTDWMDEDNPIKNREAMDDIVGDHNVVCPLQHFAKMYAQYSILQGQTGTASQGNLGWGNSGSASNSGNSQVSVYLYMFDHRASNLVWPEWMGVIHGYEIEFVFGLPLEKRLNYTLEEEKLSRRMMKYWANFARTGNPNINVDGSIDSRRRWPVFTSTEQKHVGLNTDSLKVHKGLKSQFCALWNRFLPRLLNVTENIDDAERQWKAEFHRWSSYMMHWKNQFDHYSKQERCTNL

T1 sequence (P06276 whole entry): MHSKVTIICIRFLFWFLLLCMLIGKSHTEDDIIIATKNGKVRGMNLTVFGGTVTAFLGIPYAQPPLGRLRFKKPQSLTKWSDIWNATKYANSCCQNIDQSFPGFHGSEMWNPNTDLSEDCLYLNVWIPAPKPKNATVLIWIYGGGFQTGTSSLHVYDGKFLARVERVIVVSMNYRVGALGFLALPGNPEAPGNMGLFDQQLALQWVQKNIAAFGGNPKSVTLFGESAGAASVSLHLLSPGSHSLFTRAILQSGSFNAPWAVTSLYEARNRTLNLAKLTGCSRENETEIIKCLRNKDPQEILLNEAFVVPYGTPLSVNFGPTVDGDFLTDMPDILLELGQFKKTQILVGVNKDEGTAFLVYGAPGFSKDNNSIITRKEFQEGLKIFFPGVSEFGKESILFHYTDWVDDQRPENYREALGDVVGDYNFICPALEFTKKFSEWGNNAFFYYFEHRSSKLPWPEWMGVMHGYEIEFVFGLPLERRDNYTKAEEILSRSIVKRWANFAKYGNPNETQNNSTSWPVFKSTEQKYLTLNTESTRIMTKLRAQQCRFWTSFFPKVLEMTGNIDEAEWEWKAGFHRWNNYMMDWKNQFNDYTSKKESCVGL
Chain of Acetylcholinesterase (Electrophorus electricus) (O42275 24-633 limits assumed): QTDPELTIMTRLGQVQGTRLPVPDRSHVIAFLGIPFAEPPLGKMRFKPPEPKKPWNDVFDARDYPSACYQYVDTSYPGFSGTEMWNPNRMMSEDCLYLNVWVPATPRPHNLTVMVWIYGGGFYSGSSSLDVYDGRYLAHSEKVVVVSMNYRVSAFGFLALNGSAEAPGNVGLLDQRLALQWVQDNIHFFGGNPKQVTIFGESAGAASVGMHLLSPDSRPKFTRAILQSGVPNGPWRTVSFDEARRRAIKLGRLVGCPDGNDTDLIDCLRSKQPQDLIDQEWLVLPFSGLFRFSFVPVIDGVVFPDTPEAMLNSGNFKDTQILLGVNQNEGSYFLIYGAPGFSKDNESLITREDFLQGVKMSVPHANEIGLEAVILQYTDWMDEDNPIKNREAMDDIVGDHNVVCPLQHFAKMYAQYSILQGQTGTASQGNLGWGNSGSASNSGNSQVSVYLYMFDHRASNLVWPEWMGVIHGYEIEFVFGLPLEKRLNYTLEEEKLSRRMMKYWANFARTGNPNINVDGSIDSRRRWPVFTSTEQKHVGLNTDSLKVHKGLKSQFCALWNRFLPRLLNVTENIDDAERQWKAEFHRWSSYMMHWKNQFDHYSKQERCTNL

Row | SMILES | inhibition [1] | inhibition [2] | Ratio IC50 [3] | IC50 [4] | Ratio IC50 [5] | Ratio IC50 [6] | IC50 [7]
1 | COc1ccc2cc(-c3cc(OC)c4c(c3CC=C(C)C)OC(C)(CCC=C(C)C)C=C4)oc2c1 (centres undefined) | inactive | inactive |  |  |  |  | 
2 | COc1cc(O)c(C/C=C(\C)CCC=C(C)C)c(-c2cc3ccc(O)cc3o2)c1CC=C(C)C |  | inactive | < 10 | 510 nM |  |  | 
3 | COc1cc(O)c(CC=C(C)C)c(-c2cc3ccc(O)cc3o2)c1C/C=C(\C)CCC=C(C)C |  | inactive | < 10 | 630 nM |  |  | 
4 | CC(C)=CCCC1(C)C=Cc2c(O)cc(-c3cc4c(O)cc(O)cc4o3)c(CC=C(C)C)c2O1 (centres undefined) |  |  |  | 8860 nM | 2 | 8.05 | 1100 nM
5 | CC(C)=CCC/C(C)=C/Cc1c(O)cc(O)c(CC=C(C)C)c1-c1cc2ccc(O)cc2o1 [LAKOOCHIN B] |  |  | 37 | 100 nM | 2 | 0.09 | 1080 nM
6 | COc1ccc2cc(-c3c(CC=C(C)C)c(O)cc(O)c3C/C=C(\C)CCC=C(C)C)oc2c1 |  | inactive | < 10 | 990 nM |  |  | 
7 | COc1cc(O)c(CC=C(C)C)c(-c2cc3ccc(O)c(C/C=C(\C)CCC=C(C)C)c3o2)c1 |  |  |  | 47200 nM |  | 0.76 | 61900 nM
8 | CC(C)=CCc1c(-c2cc3ccc(O)cc3o2)cc2c3c1O[C@@]1(C)CCC([C@@H]3C1)C(C)(C)O2 (some centres undefined) |  | inactive |  | 1560 nM |  |  | 
9 | Oc1cc(O)c2c(c1)O[C@H](c1ccc(O)c(O)c1)[C@@H](O)C2 | inactive | inactive |  |  |  |  | 
10 | CC(C)=CCCC1(C)C=Cc2c(O)cc(-c3cc4ccc(O)cc4o3)c(CC=C(C)C)c2O1 (centres undefined) |  |  |  | 14900 nM | 2 | 17.2 | 870 nM
11 | Oc1cc(O)cc(/C=C/c2ccc(O)cc2O)c1 [OXYRESVERATROL] |  | inactive |  | 2950 nM |  |  | 
12 | COc1cc(OC)c(CC=C(C)C)c(-c2cc3ccc(O)cc3o2)c1CC=C(C)C [LAKOOCHIN A] |  |  |  | 13900 nM |  | 0.5 | 27400 nM
13 | COc1cc(-c2cc3ccc(O)cc3o2)c(CC=C(C)C)c2c1C=CC(C)(CCC=C(C)C)O2 (centres undefined) |  | inactive | < 10 | 310 nM |  |  | 
14 | COc1cc(OC)c(C/C=C(\C)CCC=C(C)C)c(-c2cc3ccc(O)cc3o2)c1CC=C(C)C | inactive | inactive |  |  |  |  | 
15 | COc1ccc2cc(-c3cc(O)c4c(c3CC=C(C)C)OC(C)(CCC=C(C)C)C=C4)oc2c1 (centres undefined) |  | inactive | < 10 | 1110 nM |  |  | 
